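Step 1: Grow cells in 96-well plates. Step 2: Expose to compound for 48 hours at 5 concentrations. Step 3: Interpolate endpoints linearly; if unreached, use highest concentration. At the GI50, growth is halved. TGI: concentration producing complete growth inhibition.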
What was measured:
Assay in all cases: NCI tumour cell line growth inhibition, 48 h
786-0 renal = test system: 786-0 renal
CCRF-CEM leukemia = test system: CCRF-CEM leukemia
EKVX NSCLC = test system: EKVX NSCLC
IGROV1 ovarian = test system: IGROV1 ovarian
NCI-H522 lung = test system: NCI-H522 lung
SF-268 CNS = test system: SF-268 CNS
SK-OV-3 ovarian = test system: SK-OV-3 ovarian
TK-10 renal = test system: TK-10 renal
UACC-257 melanoma = test system: UACC-257 melanoma
UO-31 renal = test system: UO-31 renal

In the case of `Cc1cc2c3ccccc3ccc2[n+]2ccccc12`, the GI50 (786-0 renal) is reported as 6.11 µM, the TGI (786-0 renal) is reported as > 69.1 µM and the GI50 (CCRF-CEM leukemia) is reported as 4.72 µM. For the same molecule, the TGI (CCRF-CEM leukemia) was 35.2 µM, the GI50 (EKVX NSCLC) was 1.22 µM and the TGI (EKVX NSCLC) was > 33.4 µM. The GI50 (IGROV1 ovarian) was 10 µM, the TGI (IGROV1 ovarian) was > 86.2 µM and the GI50 (NCI-H522 lung) was 2.6 µM. For the same molecule, the TGI (NCI-H522 lung) was 13.1 µM, the GI50 (SF-268 CNS) was 0.839 µM and the TGI (SF-268 CNS) was 3.92 µM. The GI50 (SK-OV-3 ovarian) was 10.7 µM, the TGI (SK-OV-3 ovarian) was 73.3 µM and the GI50 (TK-10 renal) was 19.7 µM. The TGI (TK-10 renal) was > 86.8 µM, the GI50 (UACC-257 melanoma) was 6.17 µM and the TGI (UACC-257 melanoma) was 27.5 µM. For the same molecule, the GI50 (UO-31 renal) was 3.73 µM and the TGI (UO-31 renal) was > 100 µM.
`CC1(O)CC2(O)C=CC3=C(C(=O)c4cccc(O)c4C3=O)C2(O)C(=O)C1O` (stereo not given) was tested, and the TGI (786-0 renal) was 3.84 µM, the TGI (CCRF-CEM leukemia) was 2.87 µM and the TGI (EKVX NSCLC) was 5.99 µM. It also gave a TGI (IGROV1 ovarian) of 10.6 µM, a TGI (NCI-H522 lung) of 0.29 µM and a TGI (SF-268 CNS) of 17.1 µM. The TGI (SK-OV-3 ovarian) was 28.5 µM, the TGI (TK-10 renal) was 3.12 µM and the TGI (UACC-257 melanoma) was 2.67 µM. It also gave a TGI (UO-31 renal) of 4 µM.
`OCCNc1ncnc2c1ncn2C1OC(CO)C(O)C1O` (stereo not given) was tested, and the TGI (786-0 renal) was > 100 µM, the TGI (CCRF-CEM leukemia) was > 100 µM and the TGI (EKVX NSCLC) was > 100 µM. The TGI (IGROV1 ovarian) was > 100 µM, the TGI (NCI-H522 lung) was > 100 µM and the TGI (SF-268 CNS) was > 100 µM. For the same molecule, the TGI (SK-OV-3 ovarian) was > 100 µM, the TGI (TK-10 renal) was > 100 µM and the TGI (UACC-257 melanoma) was > 100 µM. For the same molecule, the TGI (UO-31 renal) was > 100 µM.
With `Cc1ccc2c(Nc3cccc(Cl)c3F)ncc(NC(=O)c3csc4c(N)ncnc34)c2c1` the GI50 (786-0 renal) was > 100 µM, the TGI (786-0 renal) was > 100 µM and the GI50 (CCRF-CEM leukemia) was 21.2 µM. For the same molecule, the TGI (CCRF-CEM leukemia) was > 100 µM, the GI50 (EKVX NSCLC) was > 100 µM and the TGI (EKVX NSCLC) was > 100 µM. The GI50 (IGROV1 ovarian) was 0.605 µM, the TGI (IGROV1 ovarian) was > 100 µM and the GI50 (NCI-H522 lung) was > 100 µM. The TGI (NCI-H522 lung) was > 100 µM, the GI50 (SF-268 CNS) was > 100 µM and the TGI (SF-268 CNS) was > 100 µM. For the same molecule, the GI50 (SK-OV-3 ovarian) was > 100 µM, the TGI (SK-OV-3 ovarian) was > 100 µM and the GI50 (TK-10 renal) was > 100 µM. For the same molecule, the TGI (TK-10 renal) was > 100 µM, the GI50 (UACC-257 melanoma) was 0.0715 µM and the TGI (UACC-257 melanoma) was > 100 µM. The GI50 (UO-31 renal) was 0.291 µM and the TGI (UO-31 renal) was > 100 µM.
`CCC[CH2][Ge]([CH2]CCC)([CH2]CCC)[O]C(=O)C(O)c1ccccc1` (stereo not given) gave a GI50 (786-0 renal) of 7.41 µM, a TGI (786-0 renal) of 23.2 µM and a GI50 (CCRF-CEM leukemia) of 0.207 µM. It also gave a TGI (CCRF-CEM leukemia) of 25.7 µM, a GI50 (EKVX NSCLC) of 0.309 µM and a TGI (EKVX NSCLC) of 15 µM. The GI50 (IGROV1 ovarian) was 9.44 µM, the TGI (IGROV1 ovarian) was 30.6 µM and the GI50 (NCI-H522 lung) was 0.411 µM. For the same molecule, the TGI (NCI-H522 lung) was 5.65 µM, the GI50 (SF-268 CNS) was 6.74 µM and the TGI (SF-268 CNS) was > 65.1 µM. The GI50 (SK-OV-3 ovarian) was 9.27 µM, the TGI (SK-OV-3 ovarian) was 35.6 µM and the GI50 (TK-10 renal) was 18 µM. For the same molecule, the TGI (TK-10 renal) was > 100 µM, the GI50 (UACC-257 melanoma) was 1.08 µM and the TGI (UACC-257 melanoma) was 15.5 µM. It also gave a GI50 (UO-31 renal) of 0.885 µM and a TGI (UO-31 renal) of 15.8 µM.
`COC(=O)c1ccc2c(c1)C(=O)c1c-2n(CCCN)c(=O)c2cc([N+](=O)[O-])ccc12` was tested, and the GI50 (786-0 renal) was < 0.025 µM, the TGI (786-0 renal) was 0.302 µM and the GI50 (CCRF-CEM leukemia) was < 0.01 µM. It also gave a TGI (CCRF-CEM leukemia) of 0.0759 µM, a GI50 (EKVX NSCLC) of 0.0811 µM and a TGI (EKVX NSCLC) of 0.857 µM. For the same molecule, the GI50 (IGROV1 ovarian) was < 0.0156 µM, the TGI (IGROV1 ovarian) was 0.352 µM and the GI50 (NCI-H522 lung) was < 0.0306 µM. The TGI (NCI-H522 lung) was 0.588 µM, the GI50 (SF-268 CNS) was < 0.0177 µM and the TGI (SF-268 CNS) was 1.4 µM. It also gave a GI50 (SK-OV-3 ovarian) of 0.0332 µM, a TGI (SK-OV-3 ovarian) of 1.65 µM and a GI50 (TK-10 renal) of 1.05 µM. The TGI (TK-10 renal) was 2.92 µM, the GI50 (UACC-257 melanoma) was 0.234 µM and the TGI (UACC-257 melanoma) was 1.23 µM. The GI50 (UO-31 renal) was < 0.0137 µM and the TGI (UO-31 renal) was < 0.0405 µM.
For `O=C(/C=C/c1ccccc1O)c1cccnc1`, the TGI (786-0 renal) was > 100 µM, the TGI (CCRF-CEM leukemia) was > 100 µM and the TGI (EKVX NSCLC) was > 100 µM. The TGI (IGROV1 ovarian) was > 100 µM, the TGI (NCI-H522 lung) was > 100 µM and the TGI (SF-268 CNS) was > 100 µM. The TGI (SK-OV-3 ovarian) was > 100 µM, the TGI (TK-10 renal) was > 100 µM and the TGI (UACC-257 melanoma) was > 100 µM. For the same molecule, the TGI (UO-31 renal) was > 100 µM.

Reference: PubChem BioAssay (NCI)
